Tests used:
Assay in all cases: Gel-based competitive ABPP in vitro, mouse brain membrane proteome
Type in all cases: biochemical
FAAH = target: T1, FAAH (Mus musculus, UniProt O08914); conditions: 10 μM, mouse brain (mem) proteome
T1 construct: from tissue; host or cells: mouse brain, membrane fraction
T1 sequence (O08914 1-579): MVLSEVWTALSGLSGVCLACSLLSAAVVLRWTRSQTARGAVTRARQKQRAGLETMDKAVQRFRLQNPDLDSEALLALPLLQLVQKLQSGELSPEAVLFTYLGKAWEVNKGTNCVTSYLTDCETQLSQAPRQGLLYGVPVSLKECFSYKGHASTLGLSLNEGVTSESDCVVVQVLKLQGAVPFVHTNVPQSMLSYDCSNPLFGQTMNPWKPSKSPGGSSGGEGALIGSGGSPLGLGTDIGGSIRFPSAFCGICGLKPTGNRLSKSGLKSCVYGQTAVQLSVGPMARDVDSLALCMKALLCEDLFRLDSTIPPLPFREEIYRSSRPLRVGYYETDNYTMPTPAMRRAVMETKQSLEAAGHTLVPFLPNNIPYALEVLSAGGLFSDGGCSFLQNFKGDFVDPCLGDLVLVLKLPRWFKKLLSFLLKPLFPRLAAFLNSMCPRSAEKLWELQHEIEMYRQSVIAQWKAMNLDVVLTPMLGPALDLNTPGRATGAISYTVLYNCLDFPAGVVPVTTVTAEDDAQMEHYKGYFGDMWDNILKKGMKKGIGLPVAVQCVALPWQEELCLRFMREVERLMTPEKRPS
Description: (§1) Assay Overview: The purpose of this assay was to determine whether test compounds can inhibit LYPLA1 and LYPLA2 in a complex proteomic lysate and to assess anti-target inhibition using a competitive activity-based proteomic profiling (ABPP) assay. In this assay, a complex proteome endogenously expressing LYPLA1/2 was incubated with test compound followed by reaction with a rhodamine-conjugated fluorophosphonate (FP-Rh) serine-hydrolase specific activity-based probe. The reaction products were separated by SDS-PAGE and visualized in-gel using a flatbed fluorescence scanner. The percentage activity remaining was determined by measuring the integrated optical density of the bands. […] Percent inhibition was calculated relative to a DMSO (no compound) control.
(§2) Protocol Summary: Mouse brain membrane proteome (50 μL reaction volume, 1 mg/mL in DPBS) was treated with 0.1-100 μM test compound (1 μL of a 50× stock in DMSO) for 30 minutes at 37° C. FP-Rh (1 μL of 50× stock in DMSO, Thermo #88318) was added to a final concentration of 2 μM. The reactions were incubated for 30 minutes at 25° C., quenched with 16 μL 4×SDS-PAGE loading buffer (reducing), separated by SDS-PAGE and visualized by in-gel fluorescent scanning. The percentage activity remaining was determined by measuring the integrated optical density of the bands relative to a DMSO-only (no compound) control. Assay Cutoff: Compounds with ≥50% inhibition of targets at 1 μM test compound concentration were considered active.
(§3) Assay Overview: The purpose of this assay was to determine IC50 values of powder samples of test compounds for enzyme of interest activity, and anti-targets in a complex proteomic lysate using a gel-based competitive ABPP assay. In this assay, a complex proteome was incubated with test compound followed by reaction with FP-Rh and SDS-PAGE analysis as described above.
(§4) Protocol Summary: Soluble HeLa cell proteome (50 μL reaction volume, 1 mg/mL in DPBS) or mouse brain membrane proteome (50 μL reaction volume, 1 mg/mL in DPBS) was treated with varying concentrations of test compound (1 μL of a 50× stock in DMSO) for 30 minutes at 37° C. FP-Rh (1 μL of 50× stock in DMSO) was added to a final concentration of 2 μM. The reaction was incubated for 30 minutes at 25° C., quenched with 16 μL 4×SDS-PAGE loading buffer (reducing), separated by SDS-PAGE and visualized by in-gel fluorescent scanning. The percentage activity remaining was determined by measuring the integrated optical density of the enzymes of interest, and anti-target bands relative to a DMSO-only (no compound) control. IC50 values were determined from dose-response curves from three replicates at each inhibitor concentration: 1, 10, 100, 1000, 10000 nM and 0.01, 0.1, 1, 10, 100, 1000, 10000, 50000, and 100000 nM.

ABHD6 = target: T2, ABHD6 (Mus musculus, UniProt Q8R2Y0); conditions: for ABHD6 in vitro enzyme activity, % @ 1 μM: mouse brain (mem) proteome; for IC50: mouse ABHD6, in vitro, read-out: mABHD6 in vitro potency (IC50)
T2 construct: from tissue; host or cells: mouse brain, membrane fraction
T2 sequence (Q8R2Y0 1-336): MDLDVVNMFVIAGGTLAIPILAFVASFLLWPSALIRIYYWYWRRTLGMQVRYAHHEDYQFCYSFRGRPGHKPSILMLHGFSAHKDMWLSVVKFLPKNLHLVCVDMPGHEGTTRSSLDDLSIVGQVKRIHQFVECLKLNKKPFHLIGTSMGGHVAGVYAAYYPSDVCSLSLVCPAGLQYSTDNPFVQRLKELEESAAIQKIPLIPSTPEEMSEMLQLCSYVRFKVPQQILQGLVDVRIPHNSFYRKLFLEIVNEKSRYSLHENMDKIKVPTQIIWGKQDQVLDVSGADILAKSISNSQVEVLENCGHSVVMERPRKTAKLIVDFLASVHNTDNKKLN
Description: as §1, §2, §3, §4

LYPLA2 = target: T3, LYPLA2 (Mus musculus, UniProt Q9WTL7); conditions: mouse brain (mem) proteome
T3 construct: a complex proteome endogenously expressing LYPLA1/2 was incubated with test compound; from tissue; host or cells: mouse brain, membrane fraction
T3 sequence (Q9WTL7 whole entry): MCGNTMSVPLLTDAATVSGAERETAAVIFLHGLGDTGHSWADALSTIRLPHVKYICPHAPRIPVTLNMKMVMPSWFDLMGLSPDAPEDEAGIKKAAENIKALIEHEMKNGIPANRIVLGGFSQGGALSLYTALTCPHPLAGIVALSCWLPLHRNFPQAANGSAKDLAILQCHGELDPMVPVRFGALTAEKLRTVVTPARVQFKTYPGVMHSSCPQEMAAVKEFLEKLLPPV
Outline: (§5)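 Mouse brain membrane proteome (1 mg/mL in DPBS) was treated with compound (0.1-100 μM) for 30 min at 37 °C, then labeled with FP-Rh (2 μM final, 30 min, 25 °C). Bands were resolved by SDS-PAGE and scanned in-gel, with inhibition taken from band optical density versus DMSO. Targets counted as active or anti-targets at ≥50% inhibition.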

LYPLA1 = target: T4, LYPLA1 (Mus musculus, UniProt P97823); conditions: mouse brain (mem) proteome
T4 construct: a complex proteome endogenously expressing LYPLA1/2 was incubated with test compound; from tissue; host or cells: mouse brain, membrane fraction
T4 sequence (P97823 whole entry): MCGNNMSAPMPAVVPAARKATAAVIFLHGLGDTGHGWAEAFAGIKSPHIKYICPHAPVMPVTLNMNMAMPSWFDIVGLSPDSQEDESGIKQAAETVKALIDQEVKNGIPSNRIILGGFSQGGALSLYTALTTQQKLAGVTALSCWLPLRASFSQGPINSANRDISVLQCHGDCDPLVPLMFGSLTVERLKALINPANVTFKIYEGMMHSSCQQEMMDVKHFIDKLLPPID
Outline: as §5

| Compound | FAAH in vitro enzyme activity, % @ 10 μM (FAAH) [% @] | ABHD6 in vitro enzyme activity, % @ 1 μM (ABHD6) [% @] | LYPLA2 in vitro enzyme activity, % @ 1 μM (LYPLA2) [% @] | LYPLA1 in vitro enzyme activity, % @ 1 μM (LYPLA1) [% @] | IC50 (ABHD6) [nM] | LYPLA2 in vitro enzyme activity, % @ 10 μM (LYPLA2; 10 μM) [% @] | LYPLA1 in vitro enzyme activity, % @ 10 μM (LYPLA1; 10 μM) [% @] |
| --- | --- | --- | --- | --- | --- | --- | --- |
| C#Cc1ccc(CCC2CCN(C(=O)ON3C(=O)[C@@H]4CN(C(=O)N5CCOCC5)CCN4C3=O)CC2)cc1 [Compound 48, (S)-7-(morpholine-4-carbonyl)-1,3-dioxo-hexahydroimidazo[1,5-a]pyrazin-2(3H)-yl 4-(4-ethynylphenethyl)piperidine-1-carboxylate] | 75 | 100 | 75 | 75 |  |  |  |
| C#Cc1ccc(CCC2CCN(C(=O)ON3C(=O)[C@H]4CN(C(=O)N5CCOCC5)CCN4C3=O)CC2)cc1 [Compound 49, (R)-7-(morpholine-4-carbonyl)-1,3-dioxo-hexahydroimidazo[1,5-a]pyrazin-2(3H)-yl 4-(4-ethynylphenethyl)piperidine-1-carboxylate] | 50 | 100 | 75 | 75 |  |  |  |
| O=C(ON1C(=O)[C@@H]2CN(C(=O)N3CCOCC3)CCN2C1=O)N1CCC(CCc2ccc(Cl)cc2)CC1 [Compound 50, (S)-7-(morpholine-4-carbonyl)-1,3-dioxohexahydroimidazo[1,5-a]pyrazin-2(3H)-yl 4-(4-chloro-phenethyl)piperidine-1-carboxylate] | 0 | 100 | 100 | 100 | 2.2 |  |  |
| O=C(ON1C(=O)[C@H]2CN(C(=O)N3CCOCC3)CCN2C1=O)N1CCC(CCc2ccc(Cl)cc2)CC1 [Compound 51, (R)-7-(morpholine-4-carbonyl)-1,3-dioxohexahydroimidazo[1,5-a]pyrazin-2(3H)-yl 4-(4-chloro-phenethyl)piperidine-1-carboxylate] | 0 | 100 | 100 | 100 | 2.5 |  |  |
| COc1ccc(N2CCN(C(=O)ON3C(=O)C4CN(CC5CCN(Cc6ccccc6)CC5)CCN4C3=O)CC2)cc1 (centres unmarked) [Compound 52, 7-((1-benzylpiperidin-4-yl)methyl)-1,3-dioxo-hexahydroimidazo[1,5-a]pyrazin-2(3H)-yl 4-(4-methoxyphenyl)piperazine-1-carboxylate] | 0 | 100 |  |  |  | 0 | 0 |
| C#Cc1ccc(CCC2CCN(C(=O)ON3C(=O)C4CN(C(=O)N5CCOCC5)CCN4C3=O)CC2)cc1 (centres unmarked) [Compound 53, 7-(morpholine-4-carbonyl)-1,3-dioxo-hexahydroimidazo[1,5-a]pyrazin-2(3H)-yl 4-(4-ethynylphenethyl)piperidine-1-carboxylate] | 50 | 100 | 75 | 75 |  |  |  |

From US9981972B2, “N-hydroxy bicyclic hydantoin carbamates as tools for identification of serine hydrolase targets” (ABIDE THERAPEUTICS, INC., priority 2014, dated 2018)
